Measurements as given in patent US7728012B2, “Carboxamide compounds and their use as calpain inhibitors” (Abbott GmbH & Co. KG, priority 2006, dated 2010).

Experiments:
Type in all cases: biochemical
[1] = molecular target: T1, cathepsin B isolated from human liver (Homo sapiens, UniProt P07858); experiment: Cathepsin B kinetic fluorescence enzyme inhibition assay; conditions: selectivity ratio versus calpain I
T1 construct: cathepsin B—isolated from human liver; purchased Calbiochem 219362; host or cells: human liver (tissue isolate)
Description: (§1) The following solutions and buffers were employed: • HBS (for 40 ml): 800 μl M HEPES; 2.16 ml 100 mM KCl; 4.8 ml 1M NaCl; 3.59 ml 5% glucose; 60 μl μM MgSO4; 400 μl 100 mM Na pyruvate, 28.19 ml water; pH 7.2-7.5. • lysis buffer (for 20 ml): 400 μl M Tris pH 8.2; 2.74 ml 1M NaCl; 520 μl 0.5M EDTA; 2 ml 10% triton X-100; 0.8 ml (=1:25) CompletePlus (1 tablet/2 ml H2O); 200 μl 100 mM Pefabloc; 13.34 ml water, pH 8.2. • TBST (10×) (for 1 l): 100 mM Tris (12.1 g); 1.5M NaCl (87 g); 1% Tween 20 (10 g), adjusted to pH 8. I Enzyme Inhibition In Vitro: • Testing for blockade of the corresponding enzymic activities was carried out by means of kinetic fluorescence assays (excitation 390 nm, emission 460 nm). • Apparent Ki values were calculated from the experimentally determined IC50 values by the Cheng-Prussoff relation assuming a reversible competitive enzyme inhibition. The Km values of the substrates used under the assay conditions indicated above were: 90 μM (Z-Phe-Arg-AMC, cathepsin B), 10 μM (Z-Gly-Pro-Arg-AMC, cathepsin K), 2 μM (Z-Phe-Arg-AMC, cathepsin L), and 30 μM (Z-Val-Val-Arg-AMC, cathepsin S). • The indicated Ki values are averages of the inhibition constants calculated on the basis of 2 to 4 independent dose-effect plots.
(§2) The following assays were used: • 1. Calpain I: • 20 nM calpain-I—isolated from human erythrocytes (Calbiochem #208713), 100 μM Suc-Leu-Tyr-AMC (Bachem #1-1355) as substrate in buffer with 62 mM imidazole, 0.3 mM CaCl2, 0.10% CHAPS, 0.05% BSA, 1 mM DTT at pH 7.3 and room temperature. • 2. Cathepsin B: • 0.25 nM cathepsin B—isolated from human liver (Calbiochem #219362), 100 μM Z-Phe-Arg-AMC (Bachem #I-1160) as substrate 50 mM MES, 2 mM EDTA, 0.05% Brij 35, 2.5 mM L-cysteine, pH 6.0, room temperature. • 3. Cathepsin K: • 3 nM cathepsin K—activated from recombinant human procathepsin K from E. coli (Calbiochem #342001), 10 μM Z-Gly-Pro-Arg-AMC (Biomol #P-142) as substrate in 50 mM MES, 2 mM EDTA, 0.05% Brij 35, 2.5 mM L-cysteine, pH 6.0, room temperature. • 4. Cathepsin L: • 1 nM cathepsin L—isolated from human liver (Calbiochem #219402), 2 μM Z-Phe-Arg-AMC (Bachem #1-1160) as substrate in 50 mM MES, 2 mM EDTA, 0.05% Brij 35, 2.5 mM L-cysteine, pH 6.0, room temperature. • 5. Cathepsin S: • 0.5 nM recombinant human cathepsin S from E. coli (Calbiochem #219343), 20 μM Z-Val-Val-Arg-AMC (Bachem #1-1540) as substrate in 50 mM MES, 2 mM EDTA, 0.05% Brij 35, 2.5 mM L-cysteine, pH 6.0, room temperature. • The results of the in vitro determination are indicated in Table 1. The following abbreviations are used in Table 1: • The “Calpain activity” column, ++ stands for a calpain Ki (Ki(calpain)) of ≦40 nM and + means: 40 nM<Ki(Calpain)≦100 nM. • The “Sel. cat. B” column indicates the Ki(cathepsin B)/Ki(calpain) ratio. In this connection, ++ means a Ki(cathepsin B)/Ki(calpain) ratio of ≧30 and + means 10≦Ki(cathepsin B)/Ki(calpain)<30. • The “Sel. cat. K” column indicates the Ki(cathepsin K)/Ki(calpain) ratio. In this connection, ++ means a Ki(cathepsin K)/Ki(calpain) ratio of ≧30 and + means 10≦Ki(cathepsin K)/Ki(calpain)<30. • The “Sel. cat. L” column indicates the Ki(cathepsin L)/Ki(calpain) ratio. In this connection, ++ means a Ki(cathepsin L)/Ki(calpain) ratio of ≧50 and + means 30≦Ki(cathepsin L)/Ki(calpain)<50. • The “Sel. cat. S” column indicates the Ki(cathepsin S)/Ki(calpain) ratio. In this connection, ++ means a Ki(cathepsin S)/Ki(calpain) ratio of ≧100 and + means 50≦Ki(cathepsin S)/Ki(calpain)<100.

[2] = molecular target: T2, recombinant human cathepsin S (Homo sapiens, UniProt P25774); experiment: Cathepsin S kinetic fluorescence enzyme inhibition assay; conditions: selectivity ratio versus calpain I
T2 construct: purchased Calbiochem 219343; host or cells: E. coli
T2 sequence (P25774 115-331): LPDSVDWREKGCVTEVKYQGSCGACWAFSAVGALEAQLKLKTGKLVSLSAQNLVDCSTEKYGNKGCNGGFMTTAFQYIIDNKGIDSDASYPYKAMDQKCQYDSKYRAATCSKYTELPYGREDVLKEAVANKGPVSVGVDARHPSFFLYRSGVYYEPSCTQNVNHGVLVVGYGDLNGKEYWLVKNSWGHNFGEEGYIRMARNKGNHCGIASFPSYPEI
How it was run: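 cat B 0.25 nM + Z-Phe-Arg-AMC 100 μM; cat L 1 nM + Z-Phe-Arg-AMC 2 μM; cat S 0.5 nM (E. coli-expressed) + Z-Val-Val-Arg-AMC 20 μM. 50 mM MES pH 6.0, 2.5 mM L-Cys, RT. Ex 390/em 460, kinetic; Ki app = Cheng-Prusoff from IC50, mean of 2–4 curves.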

[3] = molecular target: T3, calpain-I isolated from human erythrocytes (Homo sapiens, UniProt P07384); experiment: Calpain I kinetic fluorescence enzyme inhibition assay; conditions: apparent Ki from IC50 by Cheng-Prussoff; average of 2 to 4 dose-effect plots
T3 construct: calpain-I—isolated from human erythrocytes; purchased Calbiochem 208713; host or cells: human erythrocytes (tissue isolate)
T3 sequence (P07384 1-714): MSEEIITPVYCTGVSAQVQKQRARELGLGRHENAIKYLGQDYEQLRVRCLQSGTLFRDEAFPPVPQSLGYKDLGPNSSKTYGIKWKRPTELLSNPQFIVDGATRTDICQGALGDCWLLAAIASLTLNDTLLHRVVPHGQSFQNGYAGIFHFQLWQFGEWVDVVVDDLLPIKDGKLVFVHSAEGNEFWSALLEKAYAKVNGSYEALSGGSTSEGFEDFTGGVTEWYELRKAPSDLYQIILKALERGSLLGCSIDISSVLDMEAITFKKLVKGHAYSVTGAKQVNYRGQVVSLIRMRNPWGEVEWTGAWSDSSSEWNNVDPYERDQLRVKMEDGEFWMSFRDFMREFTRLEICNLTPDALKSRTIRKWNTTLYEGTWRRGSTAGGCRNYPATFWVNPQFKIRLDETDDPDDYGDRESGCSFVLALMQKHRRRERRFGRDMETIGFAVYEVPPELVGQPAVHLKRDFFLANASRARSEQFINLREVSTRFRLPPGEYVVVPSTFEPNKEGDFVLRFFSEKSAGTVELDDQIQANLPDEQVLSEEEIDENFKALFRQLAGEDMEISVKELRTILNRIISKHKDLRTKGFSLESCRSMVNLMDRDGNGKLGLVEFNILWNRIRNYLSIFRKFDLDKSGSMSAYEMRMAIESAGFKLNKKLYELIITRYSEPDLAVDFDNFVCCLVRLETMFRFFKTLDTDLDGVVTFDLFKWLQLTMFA
T3 sequence (P04632 1-268 partner): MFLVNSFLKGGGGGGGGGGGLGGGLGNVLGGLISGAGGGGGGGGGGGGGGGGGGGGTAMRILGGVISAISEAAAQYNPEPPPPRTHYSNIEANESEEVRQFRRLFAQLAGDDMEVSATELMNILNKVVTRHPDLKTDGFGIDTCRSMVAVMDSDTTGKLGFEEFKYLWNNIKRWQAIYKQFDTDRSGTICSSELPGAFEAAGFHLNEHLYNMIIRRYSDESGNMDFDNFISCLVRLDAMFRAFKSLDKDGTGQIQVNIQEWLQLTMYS

[4] = molecular target: T4, cathepsin L isolated from human liver (Homo sapiens, UniProt P07711); experiment: Cathepsin L kinetic fluorescence enzyme inhibition assay; conditions: selectivity ratio versus calpain I
T4 construct: cathepsin L—isolated from human liver; purchased Calbiochem 219402; host or cells: human liver (tissue isolate)
T4 sequence (P07711 114-333): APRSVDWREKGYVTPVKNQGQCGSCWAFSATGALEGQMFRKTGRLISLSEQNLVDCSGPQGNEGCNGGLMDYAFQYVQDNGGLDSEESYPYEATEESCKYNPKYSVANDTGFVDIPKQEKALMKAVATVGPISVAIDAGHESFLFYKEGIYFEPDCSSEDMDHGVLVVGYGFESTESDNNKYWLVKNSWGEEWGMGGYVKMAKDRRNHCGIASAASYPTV
Description: as §1, §2

Row | Structure (SMILES) | Sel cat. B (Ki(cathepsin B)/Ki(calpain) ratio) [1] | Sel cat. S (Ki(cathepsin S)/Ki(calpain) ratio) [2] | Ki [3] [nM] | Sel cat. L (Ki(cathepsin L)/Ki(calpain) ratio) [4]
1 | Cc1cc(-c2ccccc2)nn1-c1ncccc1C(=O)NC(Cc1ccccc1)C(=O)C(N)=O (stereo not drawn) [Example 61, N-(3-Amino-1-benzyl-2,3-dioxopropyl)-2-(5-methyl-3-phenyl-1H-pyrazol-1-yl)nicotinamide] | + (10≦Ki(cathepsin B)/Ki(calpain)<30) | ++ (Ki(cathepsin S)/Ki(calpain) ratio of ≧100) |  | 
2 | N#Cc1ccc(-c2ccn(-c3ncccc3C(=O)NC(Cc3ccccc3)C(=O)C(N)=O)n2)cc1 (stereo not drawn) [Example 62, N-(3-Amino-1-benzyl-2,3-dioxopropyl)-2-[3-(4-cyanophenyl)-1H-pyrazol-1-yl]nicotinamide] |  | ++ (Ki(cathepsin S)/Ki(calpain) ratio of ≧100) | 40 to 100 | ++ (Ki(cathepsin L)/Ki(calpain) ratio of ≧50)
3 | CCCCC(NC(=O)c1cc(Cl)cnc1-n1ccc(-c2ccccc2)n1)C(=O)C(N)=O (stereo not drawn) [Example 28, N-{1-[Amino(oxo)acetyl]pentyl}-5-chloro-2-(3-phenyl-1H-pyrazol-1-yl)nicotinamide] | + (10≦Ki(cathepsin B)/Ki(calpain)<30) |  | ≤ 40 | 
4 | CC(C)CC(NC(=O)c1cc(Cl)cnc1-n1ccc(-c2ccccc2)n1)C(=O)C(N)=O (stereo not drawn) [Example 32, N-{1-[Amino(oxo)acetyl]-3-methylbutyl}-5-chloro-2-(3-phenyl-1H-pyrazol-1-yl)nicotinamide] | + (10≦Ki(cathepsin B)/Ki(calpain)<30) |  | ≤ 40 | 
5 | CS(=O)(=O)NCc1cn(-c2ncccc2C(=O)NC(Cc2ccccc2)C(=O)C(N)=O)nc1-c1ccc(F)cc1 (stereo not drawn) [Example 187, N-[3-Amino-2,3-dioxo-1-(phenylmethyl)propyl]-2-[3-(4-fluorophenyl)-4-{[(methylsulfonyl)amino]methyl}-1H-pyrazol-1-yl]pyridine-3-carboxamide] |  | ++ (Ki(cathepsin S)/Ki(calpain) ratio of ≧100) | 40 to 100 | + (30≦Ki(cathepsin L)/Ki(calpain)<50)
6 | CCCCC(NC(=O)c1cccnc1-n1ccc(-c2cccc(N3CCOCC3)c2)n1)C(=O)C(N)=O (stereo not drawn) [Example 59, N-{1-[Amino(oxo)acetyl]pentyl}-2-[3-(3-morpholin-4-ylphenyl)-1H-pyrazol-1-yl]nicotinamide] |  | + (50≦Ki(cathepsin S)/Ki(calpain)<100) | ≤ 40 | ++ (Ki(cathepsin L)/Ki(calpain) ratio of ≧50)
7 | NC(=O)C(=O)C(Cc1ccccc1)NC(=O)c1ccccc1-n1ccc(-c2ccccc2)n1 (stereo not drawn) [Example 106, N-[3-Amino-2,3-dioxo-1-(phenylmethyl)propyl]-2-(3-phenyl-1H-pyrazol-1-yl)benzamide] |  | ++ (Ki(cathepsin S)/Ki(calpain) ratio of ≧100) | ≤ 40 | + (30≦Ki(cathepsin L)/Ki(calpain)<50)
8 | NC(=O)C(=O)C(Cc1ccccc1)NC(=O)c1cccnc1-n1cc2ccccc2n1 (stereo not drawn) [Example 78, N-(3-Amino-1-benzyl-2,3-dioxopropyl)-2-(2H-indazol-2-yl)nicotinamide] |  | + (50≦Ki(cathepsin S)/Ki(calpain)<100) | 40 to 100 | ++ (Ki(cathepsin L)/Ki(calpain) ratio of ≧50)
9 | NC(=O)C(=O)C(Cc1ccccc1)NC(=O)c1cccnc1-n1cnc(-c2ccc(Cl)cc2)c1 (stereo not drawn) [Example 9, N-(3-Amino-1-benzyl-2,3-dioxopropyl)-2-[4-(4-chlorophenyl)-1H-imidazol-1-yl]nicotinamide] |  | ++ (Ki(cathepsin S)/Ki(calpain) ratio of ≧100) | ≤ 40 | + (30≦Ki(cathepsin L)/Ki(calpain)<50)
10 | NC(=O)C(=O)C(Cc1ccccc1)NC(=O)c1cccnc1-n1cc2c(n1)-c1ccccc1OCC2 (stereo not drawn) [Example 141, N-[3-Amino-2,3-dioxo-1-(phenylmethyl)propyl]-2-(4,5-dihydro-2H-[1]benzoxepino[5,4-c]pyrazol-2-yl)pyridine-3-carboxamide] |  | ++ (Ki(cathepsin S)/Ki(calpain) ratio of ≧100) | 40 to 100 | ++ (Ki(cathepsin L)/Ki(calpain) ratio of ≧50)
